Data reported in patent US9717721B2, “Use of aryl-quinolin derivatives as inhibitors of vasculogenic mimicry” (TaiRx Inc., priority 2015, dated 2017).

What was measured:
[1] = tested on: SK-MEL-28 aggressive human melanoma cells; experiment: Loss of pre-formed VM network in SK-MEL-28 cells on MATRIGEL; type: cell-based; conditions: 100 nM
Procedure: TRX-818 M1 (i.e., compound No. 38) structurally similar compounds were tested for their effect on inhibition of vasculogenic mimicry. Aggressive human melanoma (SK-MEL-28 from ATCC®; 7.5×10^4 mL medium) cells were seeded onto a three-dimensional polymerized MATRIGEL™-coated 24-well plate. After 18 h of cell seeding, VM network was formed. The medium was then replaced with negative controls (untreated and DMSO treated controls), a positive control (100 nM of TRX-818M1) or 100 nM of each testing compound.

[2] = tested on: HCT-116 orthotopic human colon cancer xenograft; experiment: HCT-116 orthotopic human colon cancer xenograft model; type: in vivo, mice; conditions: for animals found dead prior to study termination: ten mice/group
Procedure: The inhibitory effect of TRX-818 on tumor growth and VM formation of HCT-116, a highly metastatic colon tumor, was examined in a HCT-116 orthotopic xenograft model. The effect of TRX-818 was evaluated on the formation of the vascular or vascular-like (vasculogenic mimicry, VM) network by immunohistochemistry staining (IHC) in orthotopic xenograft human colon cancer model inoculated with HCT116 colon cancer cell lines
Six groups were set in this study (ten mice/group). There were: Group 1, TRX-818 at 20 mg/kg given as oral administration; Group 2, TRX-818 at 50 mg/kg given as oral administration; Group 3, TRX-818 at 100 mg/kg given as oral administration; Group 4, TRX-818 at 20 mg/kg given as intravenous injection; Group 5, Irinotecan at 50 mg/kg given as intraperitoneal injection; Group 6, vehicle group. Dose schedule for G1, G2, G3 and G6 was QD×28 and for G4 was QOD×7. Body weights were monitored for safety evaluation. Tumor size and tumor weight were measured at the end of in-life study. The percentage of tumor growth inhibition (TGI %) was calculated at the termination of the study for anti-tumor effect evaluation. The average body weight of study mice on Day 1 was ˜20 gram and decreased to ˜17-19 gram at the end of study (Day 42)
At the end of 28-day dosing, CO2 anesthesia (1 min) followed by cervical dislocation was used for mice euthanasia in the study prior to tumors and lungs excision. First, a ventral midline incision was made and colon with primary tumor was excised and collected. The tumor collection was completed in 3 minutes after euthanasia. The tissues were rinsed with PBS to remove the blood before fixation.
The number of channels with CD31^+/red blood cell (RBC)^+ or CD31^−/RBC^+ were counted on the whole section of each sample in each group, and the number of vessels with CD31 positive or negative staining were counted based on 5 light fields (200×) under microscope. The vascular network represented by the CD31^+/RBC^+ staining whereas the VM network represented by CD31^−/RBC^+ staining, because the VM formation is independent of vascular endothelial cells. The scoring was conducted by blinded, objective observer.

[3] = tested on: C8161 aggressive melanoma cells; experiment: VM network formation in three-dimensional MATRIGEL, C8161 cells; type: cell-based, human; conditions: for VM network formation: all tested concentrations
Procedure: (§1) Aggressive human melanoma (C8161 or SK-MEL28; 1×10^5) cells were seeded into a three-dimensional polymerized MATRIGEL™ (75 μl) for VM network analysis. C8161 or SK-MEL28 cells were treated for 24 h with 0.5, 1, 5, 10, 25 or 50 or 100 nM of TRX-818 at 5 or 24 h after cell attachment. Another set of melanoma cells were seeded onto a plastic dish and treated for the same amount of time before the cell viability of C8161 or SK-MEL28 cells was determined using the Guava Nexin Assay (Millipore, USA).
(§2) The VM network image was taken using a confocal laser scanning microscope equipped with an environmental, chamber to track the response of cancer cells to the test compound. The images were then digitized and subsequently analyzed using the Angiosys software. Four images per sample were analyzed to quantify the number of junctions and total tubule length of VM formation. Changes were presented in percentage relative to the vehicle control. Sterile deionized water (tissue-culture grade) was used as the vehicle control.
(§3) Aggressive human melanoma (C8161, 7.5×10^4) cells were seeded as disclosed in Example 1. C8161 cells were treated tor 4 h or 24 h with 0.3, 1 or 5 nM of TRX-818M1. Another set of melanoma cells were seeded onto a plastic dish and treated for the same amount of time before the cell viability of C8161 cells was determined.

C8161 cells = experiment: Cell viability of C8161 cells (Guava Nexin Assay); type: cell-based; conditions: higher concentrations in the nM range
Procedure: as §1, §3

Nodal = experiment: qRT-PCR mRNA level of Nodal in C8161 cells; type: cell-based, human; conditions: 10 nM
Procedure: (§4) To determine whether TRX-818 reduced the VM network formation by altering the levels of the essential proteins for VM, its effect on Nodal, Notch4, VE-cadherin (CDHE5) or ephrin receptor A2 (Eph A2) expression was determined using qRT-PCR. 2×10^6 of aggressive human melanoma (C8161) cells were treated with 10 nM TRX-818 for 8, 24, 48, or 72 h. Sterile deionized water (tissue-culture grade) was used as vehicle.

[4] = tested on: phosphorylated Smad2 (P-Smad2); experiment: Immunoblotting of phosphorylated Smad2 in C8161 cells; type: cell-based, human; conditions: 10 nM
Procedure: (§5) To further understand how TRX-818 alters the signaling pathways required for VM network formation, the protein levels of Pro-Nodal, Smad2, and phosphorylated Smad2 (P-Smad2) were determined using immunoblotting analysis. On the day of study, TRX-818 was prepared as described in Example 1, C8161 cells were untreated (control) or treated with 10 nM TRX-818 for 1, 4, 8, and 24 h. Protein expression of Nodal and total Smad2, and P-Smad2 was analyzed by immunoblotting analysis, 5×10^6 aggressive human melanoma (C8161) cells were seeded onto a plastic dish in the presence of 10 nM TRX-818, and total proteins were collected for analysis. To quantify the protein levels of Nodal and P-Smad2, 40 μg and 25 μg of total proteins were used for SDS-PAGE and immunoblotting, respectively. The protein level of β-actin was used for normalization to assure equal protein loading.

SK-MEL28 cancer cells = experiment: VM network formation in three-dimensional MATRIGEL, SK-MEL28 cells; type: cell-based, human; conditions: 24 h treatment
Procedure: as §1, §2

[5] = tested on: Notch4 intracellular domain (Notch 4 ICD); experiment: qRT-PCR mRNA level of Notch4 ICD in C8161 cells; type: cell-based, human; conditions: 10 nM
Procedure: as §4

Smad2 = experiment: Immunoblotting of total Smad2 in C8161 cells; type: cell-based, human; conditions: 10 nM
Procedure: as §5

VE-cadherin (CDH5) = experiment: qRT-PCR mRNA level of CDH5 in C8161 cells; type: cell-based, human; conditions: 10 nM
Procedure: as §4

[6] = tested on: Aggressive human melanoma (C8161 or SK-MEL28) cells; experiment: Quantification of number of junctions and total tubule length of VM formation (Angiosys); type: cell-based
Procedure: as §1, §2

Pro-Nodal = experiment: Immunoblotting of Pro-Nodal protein in C8161 cells; type: cell-based, human; conditions: 10 nM
Procedure: as §5

CN(C)c1ccc2[nH]c(-c3cc(O)cc(F)c3)cc(=O)c2c1 [Compound C4]
loss of VM network compared to negative controls ([1]; 5 h post treatment): mild loss of VM network | loss of VM network compared to negative controls ([1]; 24 h post treatment): marked loss of VM network

COc1cccc(-c2cc(=O)c3c(O)c(OC)ccc3[nH]2)c1 [Compound B3]
loss of VM network compared to negative controls ([1]; 5 h post treatment): mild loss of VM network | loss of VM network compared to negative controls ([1]; 24 h post treatment): marked loss of VM network

CCc1c2c(nc3ccc(OC(=O)N4CCC(N5CCCCC5)CC4)cc13)-c1cc3c(c(=O)n1C2)COC(=O)[C@]3(O)CC [Irinotecan, reference compound]
Average number of channels (CD31−/RBC+, VM) in the whole tumor section per group, Mean ± SEM ([2]; 50 mg/kg Q4D×3, i.p.): 1.1 ± 0.4

O=c1cc(-c2cccc(OP(=O)(O)O)c2)[nH]c2ccc(N3CCCC3)cc12 [Compound 147, 3-(4-Oxo-6-(pyrrolidin-1-yl)-1,4-dihydroquinolin-2-yl)phenyl dihydrogen phosphate]
loss of VM network compared to negative controls ([1]; 5 h post treatment): mild loss of VM network | loss of VM network compared to negative controls ([1]; 24 h post treatment): marked loss of VM network

O=c1cc(-c2ccccc2F)[nH]c2cc3c(cc12)OCO3 [CHM-2133, 2-(2-fluorophenyl)-6,7-methylenedioxyquinolin-4-one]
concentration effective as vascular disrupting agent [3]: ~0.3 nM | VM network formation [3]: inhibited

COc1cc2c(cc1O)N=C(c1ccccc1F)CC2=O [Compound 43, 2-(2-Fluorophenyl)-7-hydroxy-6-methoxyquinolin-4-one]
loss of VM network compared to negative controls ([1]; 5 h post treatment): mild loss of VM network | loss of VM network compared to negative controls ([1]; 24 h post treatment): marked loss of VM network

COc1ccc2[nH]c(-c3cccc(F)c3)cc(=O)c2c1O [TRX-818M1, 2-(3-Fluorophenyl)-5-hydroxy-6-methoxyquinolin-4-one]
cell death (C8161 cells): induced cell death | loss of VM network compared to negative controls ([1]; 5 h post treatment): mild loss of VM network | loss of VM network compared to negative controls ([1]; 24 h post treatment): marked loss of VM network | concentration effective as vascular disrupting agent [3]: ~0.3 nM | VM network formation [3]: inhibited

O=c1cc(-c2cccc(F)c2)[nH]c2cc3c(cc12)OCO3 [Compound A6]
loss of VM network compared to negative controls ([1]; 5 h post treatment): mild loss of VM network | loss of VM network compared to negative controls ([1]; 24 h post treatment): marked loss of VM network

COc1ccc2[nH]c(-c3cccc(F)c3)cc(=O)c2c1OP(=O)(O)O [TRX-818, 2-(3-fluorophenyl)-6-methoxy-4-oxo-1,4-dihydroquinolin-5-yl phosphate]
decrease of Nodal mRNA level compared to control (Nodal; 8 hours): 80% | mrna remaining at 0.01 µM (Nodal; Homo sapiens, 72 h, read-out: Nodal mRNA level remaining, % of control cells): 70% | animals found dead prior to study termination ([2]; 20 mg/kg QOD group (intravenous)): two | animals found dead prior to study termination ([2]; 50 mg/kg QD group): one | reduction of tumor volume compared to the vehicle group ([2]; 50 mg/kg oral QD×28, Day 43 post tumor inoculation): 49% | Average number of channels (CD31−/RBC+, VM) in the whole tumor section per group, Mean ± SEM ([2]; 100 mg/kg QD×28, p.o.): 0.8 ± 0.3 | MED (Minimum Effective Dose) ([2]; orally administered): 50 mg/kg | P-Smad2/Smad2 post-treatment protein level (relative to untreated control cells) ([4]; 1 hour): −33% | P-Smad2 post-treatment protein level (relative to untreated control cells) ([4]; 1 hour): −4% | P-Smad2/Smad2 post-treatment protein level (relative to untreated control cells) ([4]; 4 hours): −60% | P-Smad2 post-treatment protein level (relative to untreated control cells) ([4]; 4 hours): −57% | P-Smad2/Smad2 post-treatment protein level (relative to untreated control cells) ([4]; 8 hours): −40% | P-Smad2 post-treatment protein level (relative to untreated control cells) ([4]; 8 hours): −39% | P-Smad2/Smad2 post-treatment protein level (relative to untreated control cells) ([4]; 24 hours): −76% | P-Smad2 post-treatment protein level (relative to untreated control cells) ([4]; 24 hours): −73% | concentration at which VM network formation was inhibited (SK-MEL28 cancer cells): 5 to 10 nM | decrease of Notch4 ICD mRNA level compared to control ([5]; 8 hours): 75% | mrna remaining at 0.01 µM ([5]; Homo sapiens, 72 h, read-out: Notch4 ICD mRNA level remaining, % of control cells): 50% | Smad2 post-treatment protein level (relative to untreated control cells) (Smad2; 1 hour): +43% | Smad2 post-treatment protein level (relative to untreated control cells) (Smad2; 4 hours): +9% | Smad2 post-treatment protein level (relative to untreated control cells) (Smad2; 8 hours): +3% | Smad2 post-treatment protein level (relative to untreated control cells) (Smad2; 24 hours): +13% | decrease of CDH5 mRNA level compared to control (VE-cadherin (CDH5); 8 hours): 70% | mrna remaining at 0.01 µM (VE-cadherin (CDH5); Homo sapiens, 72 hours, read-out: CDH5 mRNA level remaining, % of control cells): 50% | No. of junctions, relative to vehicle control ([6]; 1 nM): −16.5% | Total tubule length, relative to vehicle control ([6]; 1 nM): −15.1% | No. of junctions, relative to vehicle control ([6]; 5 nM): −43.1% | Total tubule length, relative to vehicle control ([6]; 5 nM): −23.3% | maximal reduction of cell junctions ([6]; 5 nM): 43% | No. of junctions, relative to vehicle control ([6]; 10 nM): −35.9% | Total tubule length, relative to vehicle control ([6]; 10 nM): −26.0% | No. of junctions, relative to vehicle control ([6]; 50 nM): −42.9% | Total tubule length, relative to vehicle control ([6]; 50 nM): −47.5% | maximal reduction of total tubule length ([6]; 50 nM): 48% | decrease in Pro-Nodal protein level vs control cells (Pro-Nodal; 24 h): 63% | decrease in Pro-Nodal protein level vs control cells (Pro-Nodal; four to eight hours): 28% | decrease in Nodal protein expression (detected as Pro-Nodal) vs control cells (Pro-Nodal; one hour): 4% | concentration at which VM network formation was inhibited ([3]; 24 h treatment): 5 to 10 nM

O=c1cc(-c2cccc(Cl)c2)[nH]c2ccc3c(c12)OCO3 [Compound B1]
loss of VM network compared to negative controls ([1]; 5 h post treatment): mild loss of VM network | loss of VM network compared to negative controls ([1]; 24 h post treatment): marked loss of VM network

COc1ccc2[nH]c(-c3cccc(F)c3)cc(=O)c2c1OP(=O)(O)O [Compound 52, 2-(3-Fluorophenyl)-6-methoxy-4-oxo-1,4-dihydroquinolin-5-yl dihydrogen phosphate]
loss of VM network compared to negative controls ([1]; 5 h post treatment): mild loss of VM network | loss of VM network compared to negative controls ([1]; 24 h post treatment): marked loss of VM network

O=c1cc(-c2cc(O)cc(F)c2)[nH]c2ccc(N3CCCC3)cc12 [Compound C6]
loss of VM network compared to negative controls ([1]; 5 h post treatment): mild loss of VM network | loss of VM network compared to negative controls ([1]; 24 h post treatment): marked loss of VM network
